# Experimental data reported in the NIST ThermoML archive (doi:10.1021/acs.jced.6b00139).
# ± gives the expanded uncertainty stated by the source.
# Details: Liquid, Ebulliometric method (Recirculating still)
smiles,measurement,setting,value
O=CO [formic acid],vapor or sublimation pressure,388.15 K,153.7 ± 1 kPa
same,vapor or sublimation pressure,398.15 K,200.6 ± 1 kPa
